Measurements published in patent publication US20240376094A2, “SELECTIVE BCL-XL PROTAC COMPOUNDS AND METHODS OF USE” (Les Laboratoires Servier, priority 2021, published 2024).
Like-named read-outs stand apart in the source and are kept apart here.

Legend:
[1] = system: EBC-1 lung cancer cell line; assay: EBC-1 cell proliferation, CellTiter-Glo assay; format: cell-based; conditions: Ebc-1 cell viability, CTG assay, 5 days of treatment, read-out: CTG 5 day Ebc1 GI50
Description: (§1) The ability of the BCL-xL degrader low molecular weight compounds to inhibit cell proliferation and survival was assessed using the Promega CellTiter-Glo® proliferation assay on the EBC-1 lung cancer cell line (RCB1965, obtained from RIKEN.) The cells were cultured in media that is optimal for their growth at 5% CO2, 37° C. in a tissue culture incubator. Prior to seeding for the proliferation assay, the cells were split at least 2 days before the assay to ensure optimal growth density. On the day of seeding, cells were lifted off tissue culture flasks using 0.25% trypsin. Cell viability and cell density were determined using a cell counter (Vi-Cell XR Cell Viability Analyzer, Beckman Coulter). Cells with higher than 85% viability were seeded in white clear bottom 384-well plates (Greiner cat #781098) at a density of 1000 cells per well in 50 μL of standard growth media. Plates were incubated at 37° C. overnight in a tissue culture incubator.
The BCL-xL degrader low molecular weight compounds were prepared to desired concentrations. A series of 10 dilutions were made for each prepared compound. The prepared compounds were then added to the cells resulting in final concentrations of 0.508 nM-10 μM. An acoustic transfer device (Echo555, Beckman Coulter) was used to add the compounds to the cells. Each treatment was tested in triplicate assay plates. Plates were incubated at 37° C. overnight or for 5 days in a tissue culture incubator. The ability of the compounds to inhibit cell proliferation and survival was assessed using the Promega CellTiter-Glo® proliferation assay. Plates were incubated at room temperature for 20 minutes to stabilize luminescent signals prior to reading using a multimode plate reader (PHERAstar FSX Microplate Reader, BMG Labtech).
To evaluate the effect of the compound treatments, luminescent counts of untreated cells were taken the day after seeding (Day 0 readings), and after 5 days of treatment (Day 5 readings). The Day 5 readings of the untreated cells were compared to the Day 0 readings. Assays with at least one cell doubling during the incubation period were considered valid. To evaluate the effect of the drug treatments, luminescent counts from wells containing untreated cells (100% viability) were used to normalize treated samples. The concentrations of treatment required to inhibit 50% of cell growth or survival ([…]) were calculated using a four parameter logistic regression equation.

HiBiT-tagged BCL-xL = molecular target: T1, HiBiT-tagged BCL-xL (Homo sapiens, UniProt Q07817); assay: NCI-H1650 BCL-xL protein levels, Nano-Glo HiBiT Lytic Detection; format: cell-based; conditions: NCI-H1650 expressing HiBiT-tagged BCL-xL, overnight incubation, read-out: Bcl-xl HIBIT NCIH1650 DC50
T1 construct: expressed in transfected cells; host or cells: NCI-H1650 (ATCC No. CRL-5883), engineered HiBiT cell line
T1 sequence (Q07817 whole entry): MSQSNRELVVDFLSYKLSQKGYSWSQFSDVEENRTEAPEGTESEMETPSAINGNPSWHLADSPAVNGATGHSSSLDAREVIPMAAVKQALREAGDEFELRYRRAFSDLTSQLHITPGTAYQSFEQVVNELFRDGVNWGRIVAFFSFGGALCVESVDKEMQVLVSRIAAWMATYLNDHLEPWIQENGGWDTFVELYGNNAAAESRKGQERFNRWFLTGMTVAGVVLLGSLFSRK
Description: as §1, with “degrade BCL-xL protein” for “inhibit cell proliferation and survival”, “Nano-Glo® HiBiT Lytic Detection System. The NCI-H1650 (ATCC No. CRL-5883) was engineered to express HiBiT-tagged BCL-xL. The NCI-H1650 HiBiT” for “CellTiter-Glo® proliferation assay on the EBC-1 lung cancer”, “was” for “(RCB1965, obtained from RIKEN.) The cells were”, “protein level” for “proliferation”, “5000” for “1000”, “30” for “50”
The BCL-xL degrader low molecular weight compounds were prepared to desired concentrations. A series of 10 dilutions were made for each prepared compound. The prepared compounds were then added to the cells resulting in final concentrations of 0.508 nM-10 μM. An acoustic transfer device (Echo555, Beckman Coulter) was used to add the compounds to the cells. Each treatment was tested in triplicate assay plates. Plates were incubated at 37° C. overnight in a tissue culture incubator.
BCL-xL degradation was assessed through the addition of 30 μL of Nano-Glo® HiBiT Lytic Reagent (Promega, cat #N3040), a reagent which lyses cells and contains a furimazine substrate and the large subunit (LgBiT) used in NanoLuc® Binary Technology. The LgBiT subunit having high affinity to a HiBiT-tagged protein will bind HiBiT, if present, resulting in complex formation of a luminescent NanoBiT® enzyme. This reaction will emit a luminescent signal proportional to the amount of HiBiT-tagged BCL-xL present in the cell lysate. Plates were incubated at room temperature for 20 minutes to stabilize luminescent signals prior to reading using a luminescence reader (PHERAstar FSX Microplate Reader, BMG Labtech).
To evaluate the effect of the drug treatments, luminescent counts from wells containing untreated cells (100% HiBiT-tagged BCL-xL) were used to normalize treated samples. The concentrations of treatment required to inhibit 50% were calculated using a four parameter logistic regression equation.

| SMILES | DC50 (HiBiT-tagged BCL-xL) | GI50 ([1]; Homo sapiens, 120 h) | GI50 [1] |
| --- | --- | --- | --- |
| Cc1ncsc1-c1ccc([C@H](C)NC(=O)[C@@H]2C[C@@H](O)CN2C(=O)[C@@H](NC(=O)CCOCCOCCNC(=O)c2nc(N3CCCc4c3nnc(Nc3nc5ccccc5s3)c4C)ccc2-c2cnn(CC34CC5(OCCN6CCCC6)C[C@](C)(C3)C[C@](C)(C4)C5)c2C)C(C)(C)C)cc1 [Example 158, 6-(3-(benzo[d]thiazol-2-ylamino)-4-methyl-6,7-dihydropyrido[2,3-c]pyridazin-8(5H)-yl)-3-(1-(((1r,3R,5S,7s)-3,5-dimethyl-7-(2-(pyrrolidin-1-yl)ethoxy)adamantan-1-yl)methyl)-5-methyl-1H-pyrazol-4-yl)-N-(2-(2-(3-(((S)-1-((2S,4R)-4-hydroxy-2-(((S)-1-(4-(4-methylthiazol-5-yl)phenyl)ethyl)carbamoyl)pyrrolidin-1-yl)-3,3-dimethyl-1-oxobutan-2-yl)amino)-3-oxopropoxy)ethoxy)ethyl)picolinamide] | > 1670 nM | – | 10 nM |
| Cc1ncsc1-c1ccc([C@H](C)NC(=O)[C@@H]2C[C@@H](O)CN2C(=O)[C@@H](NC(=O)C[C@H]2CC[C@@H](NC(=O)c3nc(N4CCCc5c4nnc(Nc4nc6ccccc6s4)c5C)ccc3-c3cnn(CC45CC6(C)CC(C)(C4)CC(OCCN4CCCC4)(C6)C5)c3C)CC2)C(C)(C)C)cc1 [Example 163, 6-(3-(benzo[d]thiazol-2-ylamino)-4-methyl-6,7-dihydropyrido[2,3-c]pyridazin-8(5H)-yl)-3-(1-(((1r,3R,5S,7s)-3,5-dimethyl-7-(2-(pyrrolidin-1-yl)ethoxy)adamantan-1-yl)methyl)-5-methyl-1H-pyrazol-4-yl)-N-((1R,4S)-4-(2-(((S)-1-((2S,4R)-4-hydroxy-2-(((S)-1-(4-(4-methylthiazol-5-yl)phenyl)ethyl)carbamoyl)pyrrolidin-1-yl)-3,3-dimethyl-1-oxobutan-2-yl)amino)-2-oxoethyl)cyclohexyl)picolinamide] | 6 nM | 22 nM | – |
| Cc1cc(N(CCCCN(C)C(=O)CCCCCCCCCCCCSC(C)(C)[C@H](NC(=O)C2(F)CC2)C(=O)N2C[C@H](O)C[C@H]2C(=O)NCc2ccc(-c3scnc3C)cc2)c2ccc(-c3cnn(CC45CC6(C)CC(C)(C4)CC(OCCN(C)C)(C6)C5)c3C)c(C(=O)O)n2)nnc1Nc1nc2ccccc2s1 [Example 127, 6-[[6-(1,3-benzothiazol-2-ylamino)-5-methyl-pyridazin-3-yl]-[4-[13-[(2R)-2-[(1-fluorocyclopropanecarbonyl)amino]-3-[(2S,4R)-4-hydroxy-2-[[4-(4-methylthiazol-5-yl)phenyl]methylcarbamoyl]pyrrolidin-1-yl]-1,1-dimethyl-3-oxo-propyl]sulfanyltridecanoyl-methyl-amino]butyl]amino]-3-[1-[[3-[2-(dimethylamino)ethoxy]-5,7-dimethyl-1-adamantyl]methyl]-5-methyl-pyrazol-4-yl]pyridine-2-carboxylic acid] | 33 nM | 462 nM | – |

Now from value to molecule, other results behind:

| DC50 (HiBiT-tagged BCL-xL) | GI50 ([1]; Homo sapiens, 120 h) | SMILES | GI50 [1] |
| --- | --- | --- | --- |
| 1 nM | 13 nM | Cc1ncsc1-c1ccc([C@H](C)NC(=O)[C@@H]2C[C@@H](O)CN2C(=O)[C@@H](NC(=O)CC2CC3(C2)CN(C(=O)c2nc(N4CCCc5c4nnc(Nc4nc6ccccc6s4)c5C)ccc2-c2cnn(CC45CC6(C)CC(C)(C4)CC(OCCN4CCCC4)(C6)C5)c2C)C3)C(C)(C)C)cc1 [Example 170, (2S,4R)-1-((S)-2-(2-(2-(6-(3-(benzo[d]thiazol-2-ylamino)-4-methyl-6,7-dihydropyrido[2,3-c]pyridazin-8(5H)-yl)-3-(1-(((1r,3R,5S,7s)-3,5-dimethyl-7-(2-(pyrrolidin-1-yl)ethoxy)adamantan-1-yl)methyl)-5-methyl-1H-pyrazol-4-yl)picolinoyl)-2-azaspiro [3.3]heptan-6-yl)acetamido)-3,3-dimethylbutanoyl)-4-hydroxy-N—((S)-1-(4-(4-methylthiazol-5-yl)phenyl)ethyl)pyrrolidine-2-carboxamide] | – |
| 0.4 nM | 8 nM | Cc1ncsc1-c1ccc([C@H](C)NC(=O)[C@@H]2C[C@@H](O)CN2C(=O)C(NC(=O)CCCCCCCCN(C)C(=O)c2nc(N3CCCc4c3nnc(Nc3nc5ccccc5s3)c4C)ccc2-c2cnn(CC34CC5(C)CC(C)(C3)CC(OCCN3CCCC3)(C5)C4)c2C)C(C)(C)C)cc1 (stereo partly drawn) [Example 161, 6-(3-(benzo[d]thiazol-2-ylamino)-4-methyl-6,7-dihydropyrido[2,3-c]pyridazin-8(5H)-yl)-3-(1-(((1r,3R,5S,7s)-3,5-dimethyl-7-(2-(pyrrolidin-1-yl)ethoxy)adamantan-1-yl)methyl)-5-methyl-1H-pyrazol-4-yl)-N-(9-(((S)-1-((2S,4R)-4-hydroxy-2-(((S)-1-(4-(4-methylthiazol-5-yl)phenyl)ethyl)carbamoyl)pyrrolidin-1-yl)-3,3-dimethyl-1-oxobutan-2-yl)amino)-9-oxononyl)-N-methylpicolinamide] | – |
| 1 nM | 68 nM | Cc1ncsc1-c1ccc([C@H](C)NC(=O)[C@@H]2C[C@@H](O)CN2C(=O)[C@@H](NC(=O)COC2CCN(C(=O)c3nc(N4CCCc5c4nnc(Nc4nc6ccccc6s4)c5C)ccc3-c3cnn(CC45CC6(C)CC(C)(C4)CC(OCCN4CCCC4)(C6)C5)c3C)CC2)C(C)(C)C)cc1 [Example 166, (2S,4R)-1-((S)-2-(2-((1-(6-(3-(benzo[d]thiazol-2-ylamino)-4-methyl-6,7-dihydropyrido[2,3-c]pyridazin-8(5H)-yl)-3-(1-(((1r,3R,5S,7s)-3,5-dimethyl-7-(2-(pyrrolidin-1-yl)ethoxy)adamantan-1-yl)methyl)-5-methyl-1H-pyrazol-4-yl)picolinoyl)piperidin-4-yl)oxy)acetamido)-3,3-dimethylbutanoyl)-4-hydroxy-N—((S)-1-(4-(4-methylthiazol-5-yl)phenyl)ethyl)pyrrolidine-2-carboxamide] | – |
| > 1670 nM | 73 nM | Cc1ncsc1-c1ccc([C@H](C)NC(=O)[C@@H]2C[C@@H](O)CN2C(=O)[C@@H](NC(=O)[C@H]2CCCN(C(=O)c3nc(N4CCCc5c4nnc(Nc4nc6ccccc6s4)c5C)ccc3-c3cnn(CC45CC6(C)CC(C)(C4)CC(OCCN4CCCC4)(C6)C5)c3C)C2)C(C)(C)C)cc1 [Example 168, (S)-1-(6-(3-(benzo[d]thiazol-2-ylamino)-4-methyl-6,7-dihydropyrido[2,3-c]pyridazin-8(5H)-yl)-3-(1-(((1r,3R,5S,7R)-3,5-dimethyl-7-(2-(pyrrolidin-1-yl)ethoxy)adamantan-1-yl)methyl)-5-methyl-1H-pyrazol-4-yl)picolinoyl)-N—((S)-1-((2S,4R)-4-hydroxy-2-(((S)-1-(4-(4-methylthiazol-5-yl)phenyl)ethyl)carbamoyl)pyrrolidin-1-yl)-3,3-dimethyl-1-oxobutan-2-yl)piperidine-3-carboxamide] | – |
